From ChEMBL document CHEMBL4483862, “Open-source discovery of chemical leads for next-generation chemoprotective antimalarials” (2018) come the findings set out here.

The assay relates to Plasmodium berghei. In words: Luciferase/luciferin-expressing antifolate-resistant parasites were used to infect a culture of HepG2 cells that were pre-incubated with compounds. Infected hepatocytes emit light due to the luciferase reaction. Assay results are presented as the percent inhibition of light emission compared to control. […]. The assay is classed as functional. The conditions noted are these: sporozoite; for IC90: read-out: LUCIFERASE INFECTION ASSAY - IC90.

Molecules are shown by their SMILES. Some results are limits rather than exact numbers.

One may read the IC50 as the concentration that gives 50% inhibition. A word on the IC90: it is the concentration at which the effect reaches the 90% level. `CN(C)CCCn1c(SCC(=O)N2c3ccccc3Sc3ccccc32)nc2ccccc2c1=O`: the IC90 turned out to be 9.41 µM. For the same compound, the IC50 (PBLUC_HILL_SLOPE 9.03, PBLUC_R_SQUARED 0.19, read-out: LUCIFERASE INFECTION ASSAY - IC50) stood at 7.38 µM.

On to `Cc1c(C(=O)NCc2ccc(Cl)c(Cl)c2)sc(=O)n1Cc1ccc(S(=O)(=O)N(C)C)cc1`, for which the IC90 is above 6.41 µM. In addition, the IC50 (PBLUC_HILL_SLOPE 9.17, PBLUC_R_SQUARED 0.333, read-out: LUCIFERASE INFECTION ASSAY - IC50) worked out at 5.25 µM.

Turning to `COc1ccc(CC(N)c2csc(NC(=O)c3cccc(OC(F)(F)F)c3)n2)cc1` (configuration not stated), the IC90 was found to be 7.48 µM. Also, the IC50 (PBLUC_HILL_SLOPE 9.24, PBLUC_R_SQUARED 0.637, read-out: LUCIFERASE INFECTION ASSAY - IC50) amounted to 5.89 µM.

As for `COc1cc(-c2cnc3cnc(-c4ccc(N5CCN(C)CC5)nc4)cn23)ccc1O`, the 90% effect concentration (IC90) was above 7.92 µM. In addition, the IC50 (PBLUC_HILL_SLOPE 8.9, PBLUC_R_SQUARED 0.156, read-out: LUCIFERASE INFECTION ASSAY - IC50) is 7.05 µM.

Turning to `c1ccc2c(Sc3ncnc4sccc34)cccc2c1`, the IC90 is above 11.2 µM. Besides, the IC50 (PBLUC_HILL_SLOPE 9.33, PBLUC_R_SQUARED 0.332, read-out: LUCIFERASE INFECTION ASSAY - IC50) was above 11.2 µM.

With `NC(=O)c1cccc(-c2cn3c(-c4cccc(O)c4)cnc3cn2)c1`, the IC90 is above 9.99 µM. The IC50 (PBLUC_HILL_SLOPE 9.23, PBLUC_R_SQUARED 0.539, read-out: LUCIFERASE INFECTION ASSAY - IC50) came out at 8.89 µM.

Regarding `CC(C)(C)c1csc(NC(=O)C2CCCN2S(=O)(=O)c2ccc(Br)s2)n1` (configuration not stated), the IC90 is above 10 µM. Besides, the IC50 (PBLUC_HILL_SLOPE 9.23, PBLUC_R_SQUARED 0.508, read-out: LUCIFERASE INFECTION ASSAY - IC50) came to 9.84 µM.

For `O=C(NCc1nccs1)c1nn(Cc2ccccc2)c2c1CN(C(=O)c1cc3ccccc3[nH]1)CC2`, the IC90 is above 6.65 µM. For the same compound, the IC50 (PBLUC_HILL_SLOPE 8.98, PBLUC_R_SQUARED 0.075, read-out: LUCIFERASE INFECTION ASSAY - IC50) was 5.69 µM.

On to `Nc1ccc(-c2cn3c(-c4cccc(O)c4)cnc3cn2)cn1`, for which the IC90 was above 10.9 µM. Moreover, the IC50 (PBLUC_HILL_SLOPE 9.28, PBLUC_R_SQUARED 0.463, read-out: LUCIFERASE INFECTION ASSAY - IC50) was 9.03 µM.

Consider `CCCCCc1ccc(C(=O)Nc2nc3ccccn3c2C(=O)NCCCN2CCOCC2)cc1`, for which the IC90 stood at 3.5 µM. Moreover, the IC50 (PBLUC_HILL_SLOPE 8.91, PBLUC_R_SQUARED 0.136, read-out: LUCIFERASE INFECTION ASSAY - IC50) worked out at 2.74 µM.

Consider `CCCCCc1ccc(-c2nnc(Sc3ccc(C(F)(F)F)cc3[N+](=O)[O-])[nH]2)cc1`, for which the IC90 is above 7.56 µM. For the same compound, the IC50 (PBLUC_HILL_SLOPE 9.1, PBLUC_R_SQUARED 0.598, read-out: LUCIFERASE INFECTION ASSAY - IC50) is 6.15 µM.

As to `CSc1sc(C#N)c(C)c1-c1ccon1`, the concentration for an effect of 90% (IC90) is above 14 µM. Besides, the IC50 (PBLUC_HILL_SLOPE 9.35, PBLUC_R_SQUARED 0.116, read-out: LUCIFERASE INFECTION ASSAY - IC50) was above 14 µM.

For the compound `COc1ccc(-c2cc3ncnc(NCC4CN(Cc5ccccc5)CCO4)c3s2)cc1` (configuration not stated), the IC90 is above 10 µM. For the same compound, under “PBLUC_HILL_SLOPE 9.06, PBLUC_R_SQUARED 0.282, read-out: LUCIFERASE INFECTION ASSAY - IC50”, the IC50 was determined as 8.38 µM.

As to `COc1ccc(C(CNc2nc(-c3cccnc3)nc3ccccc23)c2c[nH]c3ccccc23)cc1` (configuration not stated), the IC90 was above 10 µM. The IC50 (PBLUC_HILL_SLOPE 8.92, PBLUC_R_SQUARED 0.072, read-out: LUCIFERASE INFECTION ASSAY - IC50) is above 10 µM.

As to `O=S(=O)(Nc1cccc2cccnc12)c1cc(Cl)c(Cl)cc1Cl`, the IC90 was above 8.51 µM. Also, the IC50 (PBLUC_HILL_SLOPE 9.06, PBLUC_R_SQUARED 0.472, read-out: LUCIFERASE INFECTION ASSAY - IC50) is above 8.51 µM.

For the compound `O=C(C[n+]1ccc(NC(=O)c2ccccc2)cc1)c1ccc(F)cc1`, the IC90 was above 7.95 µM. Where the note is “PBLUC_HILL_SLOPE 9.15, PBLUC_R_SQUARED 0.444, read-out: LUCIFERASE INFECTION ASSAY - IC50”, the IC50 turned out to be 6.42 µM.

As to `CCCNC(=O)c1c(NC(=O)c2cccc(F)c2)nc2ccc(C)cn12`, the IC90 was above 9.31 µM. In addition, the IC50 (PBLUC_HILL_SLOPE 9.17, PBLUC_R_SQUARED 0.612, read-out: LUCIFERASE INFECTION ASSAY - IC50) amounted to 7.79 µM.

`COc1cncc(-c2cncc(Nc3ccc(C(C)C)cc3)c2)c1`: the IC90 came to 5.21 µM. In addition, the IC50 (PBLUC_HILL_SLOPE 9.07, PBLUC_R_SQUARED 0.477, read-out: LUCIFERASE INFECTION ASSAY - IC50) was 4.09 µM.

On to `COc1cc(OC)cc(C(NS(=O)(=O)c2cc(C(F)(F)F)ccc2Cl)c2nccn2C)c1` (configuration not stated), for which the IC90 is above 10 µM. Further, for the setting “PBLUC_HILL_SLOPE 9.29, PBLUC_R_SQUARED 0.399, read-out: LUCIFERASE INFECTION ASSAY - IC50”, the IC50 was 8.07 µM.

On to `COc1ccccc1C1=NOC(=C2Sc3ccccc3C2=O)N1`, for which the IC90 was 4.54 µM. For the same compound, the IC50 (PBLUC_HILL_SLOPE 8.91, PBLUC_R_SQUARED 0.334, read-out: LUCIFERASE INFECTION ASSAY - IC50) amounted to 3.55 µM.

Consider `COC(=O)c1scc(C)c1N1C(=O)C=CC1=O`, for which the IC90 is above 13.1 µM. Moreover, the IC50 (PBLUC_HILL_SLOPE 9.1, PBLUC_R_SQUARED 0.327, read-out: LUCIFERASE INFECTION ASSAY - IC50) is above 13.1 µM.

`CCOC(=O)N1CCC(NC(=O)/C(=C/c2ccc(OC(F)F)cc2)c2ccccc2)CC1`: the IC90 is 9.96 µM. Moreover, the IC50 (PBLUC_HILL_SLOPE 9.1, PBLUC_R_SQUARED 0.0303, read-out: LUCIFERASE INFECTION ASSAY - IC50) is 7.82 µM.

Take `Cc1cccn2cc(CN3CCC(c4nc5ccccc5s4)CC3)nc12`: the IC90 turned out to be 3.59 µM. In addition, the IC50 (PBLUC_HILL_SLOPE 8.96, 1.52, PBLUC_R_SQUARED 0.442, 0.954, read-out: LUCIFERASE INFECTION ASSAY - IC50) amounted to 2.59 µM.

Take `COc1ccc(-c2cc3c(cn2)nc(NCc2cccc(C)c2)n3C)cc1`: the IC90 is above 10 µM. Also, the IC50 (PBLUC_HILL_SLOPE 9.11, PBLUC_R_SQUARED 0.402, read-out: LUCIFERASE INFECTION ASSAY - IC50) came to 9.46 µM.

Turning to `Nc1nc(SCC(=O)NC2CCCc3ccccc32)nc2sccc12` (configuration not stated), the IC90 is above 10 µM. In addition, the IC50 (PBLUC_HILL_SLOPE 8.94, PBLUC_R_SQUARED 0.274, read-out: LUCIFERASE INFECTION ASSAY - IC50) came to 9.02 µM.

As to `CCOC(=O)C1CCCN(CC(=O)N2N=C3/C(=C/c4ccc(Cl)cc4)CCCC3C2c2ccc(Cl)cc2)C1` (configuration not stated), the IC90 is above 10 µM. Moreover, under “PBLUC_HILL_SLOPE 9.1, PBLUC_R_SQUARED 0.32, read-out: LUCIFERASE INFECTION ASSAY - IC50”, the IC50 stood at 7.93 µM.

As to `Cc1csc2nc(CNC(c3ccc(C4CCCCC4)cc3)C(C)C)cc(=O)n12` (configuration not stated), the IC90 worked out at 4.73 µM. For the same compound, for the setting “PBLUC_HILL_SLOPE 9.21, PBLUC_R_SQUARED 0.523, read-out: LUCIFERASE INFECTION ASSAY - IC50”, the IC50 came out at 3.73 µM.

For `CC(C)Oc1ccc(C(=O)NCC(=O)Nc2nc3c(s2)CCCC3)cc1`, the IC90 turned out to be 4.24 µM. Besides, under “PBLUC_HILL_SLOPE 9.11, PBLUC_R_SQUARED 0.281, read-out: LUCIFERASE INFECTION ASSAY - IC50”, the half-inhibitory concentration (IC50) was 3.33 µM.

In the case of `CNCCCNCc1cccc(OC)c1OCc1ccc(Cl)cc1`, the IC90 is above 9.46 µM. Besides, the IC50 (PBLUC_HILL_SLOPE 9.3, PBLUC_R_SQUARED 0.597, read-out: LUCIFERASE INFECTION ASSAY - IC50) turned out to be 8.76 µM.

With `CC(C)(C)c1ccc(-c2nnc(SCc3ccccc3)n2-c2cccc(C(F)(F)F)c2)cc1`, the IC90 is above 7.06 µM. Further, under “PBLUC_HILL_SLOPE 9.35, PBLUC_R_SQUARED 0.201, read-out: LUCIFERASE INFECTION ASSAY - IC50”, the IC50 turned out to be 6.61 µM.

With `O=C(Nc1nc(C23CC4CC(CC(C4)C2)C3)cs1)c1cnccn1`, the IC90 is above 10 µM. Further, the IC50 (PBLUC_HILL_SLOPE 9.13, PBLUC_R_SQUARED 0.249, read-out: LUCIFERASE INFECTION ASSAY - IC50) is 8.02 µM.

As for `Cc1ccccc1-c1ccc(CN2CCc3c(c(C(=O)NCc4ccccc4)nn3CCO)C2)cc1`, the IC90 is 2.98 µM. In addition, the concentration for half-maximal inhibition (IC50) (PBLUC_HILL_SLOPE 9.2, PBLUC_R_SQUARED 0.549, read-out: LUCIFERASE INFECTION ASSAY - IC50) stood at 2.35 µM.

Regarding `CCC(=O)Nc1ccc(CNC(=O)N2CCN(c3ccccc3C)CC2)cc1`, the IC90 came to 1.73 µM. For the setting “PBLUC_HILL_SLOPE 9.1, PBLUC_R_SQUARED 0.639, read-out: LUCIFERASE INFECTION ASSAY - IC50”, the IC50 was 1.36 µM.

With `COc1ccc(Nc2nccc3c2cc(-c2ccccc2OC)n3C)cn1`, the IC90 stood at 4.48 µM. In addition, the IC50 (PBLUC_HILL_SLOPE 9.12, PBLUC_R_SQUARED 0.328, read-out: LUCIFERASE INFECTION ASSAY - IC50) came to 3.52 µM.

For `COc1cccc2cc(/C=C/c3nc4ccccc4s3)oc12`, the IC90 was 4.1 µM. Besides, the IC50 (PBLUC_HILL_SLOPE 8.93, PBLUC_R_SQUARED 0.0906, read-out: LUCIFERASE INFECTION ASSAY - IC50) was determined as 3.2 µM.

As to `O=C1C=CC(=O)N1c1cccc(N2C(=O)C=CC2=O)c1`, the 90% effect concentration (IC90) is above 12.3 µM. Besides, for the setting “PBLUC_HILL_SLOPE 9.05, PBLUC_R_SQUARED 0.121, read-out: LUCIFERASE INFECTION ASSAY - IC50”, the IC50 was determined as 11.2 µM.
